The text below walks through data of patent US20140031427A1, “COMBINATIONS OF ADAPALENE AND BENZOYL PEROXIDE FOR TREATING ACNE LESIONS” (GALDERMA RESEARCH & DEVELOPMENT, priority 2006, published 2014).

Structures are written as SMILES. “And” between values parts separate entries of the source, which are not always exact repeats. Identical values can stand only once.

One data set concerns acne lesions. The data set is described as follows: Clinical study of topical gel combining adapalene + BPO vs monads and vehicle, 517 patients, 12 weeks. The class given is in vivo, human. The conditions noted are these: for reduction in lesions: all lesions, week 12, rounded values in text; for Degree of success / Progress of the lesions (as median absolute numbers): Number of inflammatory lesions / Progress of the lesions (as median absolute numbers): Number of non-inflammatory lesions / Progress of the lesions (as median absolute numbers): Total number of lesions / Progress of the lesions (median percentages): Number of inflammatory lesions / Progress of the lesions (median percentages): Number of non-inflammatory lesions / Progress of the lesions (median percentages): Total number of lesions: week 12, ITT, adapalene 0.1%, BPO 2.5%; for Degree of success: % patients clear or almost clear, gels once a day. As for the experimental part:
A clinical study for confirmation of efficacy was performed for a topical gel combining adapalene+benzoyl peroxide (BPO). This gel has the following formulation (expressed as % weight/total weight): The clinical study was a multi-center, randomized, double-blind study in parallel groups, to evaluate the tolerance and the efficacy of the above formulation, in comparison with its own individual active substances placed at the same doses in gels of the same formula as that of the fixed combination (individual formulae referred to as “monads”) and in comparison with the gel vehicle (placebo formula): adapalene gel (0.1%), BPO gel (2.5%) and vehicle gel. All the treatments were applied once a day for 12 weeks, to 517 patients suffering from acne. The main efficacy criteria were: the degree of success, defined as the percentage of patients considered as being “clear”, i.e., the patient has no more acne lesions (neither comedones nor inflammatory lesions), reflecting an improvement in the patient's clinical condition, or “almost clear” on the evaluation scale; the reduction of the percentage of inflammatory and non-inflammatory lesions after 12 weeks of treatment.

Another data set concerns TPA-induced ear edema. Put plainly: Anti-inflammatory evaluation in TPA-induced ear oedema model. It is filed as in vivo, Balb/c mice. The conditions noted are these: T+6 hours. As for the experimental part: The study was carried out with 45 (5 par groups) female 9 weeks aged Balb/c ByJIc mice.
The Edema was induced by a single application of 20 μl of TPA dissolved in acetone at 0.01%.
The treatment was administrated by single topical application of tested compounds dissolved in TPA at 0.01% (groups 3, 4, 5, 6 and 7) and dissolved in TPA 0.01%+BPO (groups 8, 9 and 10).
The treatments activity was measured by inflammation evaluation with ear thickness at T+6 hours.

In a further data set the test system is acne vulgaris lesions. Put plainly: Pooled analysis of three adapalene-BPO clinical studies (3855 patients): efficacy and synergy. It is filed as in vivo, human. The conditions noted are these: adapalene 0.1%, BPO 2.5%; for net effect (active minus vehicle), total lesions: week 1; for success rate: week 12, % patients with IGA clear or almost clear. On the procedure:
(§1) Three multicenter, double-blind, randomized and controlled studies on the efficacy and safety of adapalene-BPO were conducted in 157 centers in the U.S, Puerto Rico, Canada, Germany, Poland and Hungary.^19-21 Patients were randomized to receive adapalene 0.1%-BPO 2.5% (Epiduo®, Galderma Laboratories), adapalene 0.1%, BPO 2.5% or vehicle once daily in the evening for 12 weeks. Adapalene and BPO used in the studies were formulated in the same gel vehicle as adapalene-BPO, instead of as the respective commercial products (Differin® and Benzac®, Galderma Laboratories). Efficacy and safety assessments were performed at each study visit, occurred at baseline, weeks 1, 2, 4, 8 and 12.
Eligible patients were 12 years or older with 20 to 50 inflammatory lesions (IL), 30 to 100 non-inflammatory lesions (NIL), no cysts and no more than 1 nodule on the face. […] Lesion counts were performed on the face only excluding the nose. Specified washout periods were required for patients taking certain topical and systemic treatments. Patients were excluded if they received systemic acne treatment or had dermatological conditions requiring interfering treatments. Women were excluded if they were pregnant, nursing, or planning a pregnancy. Men were excluded if they had facial hair that would interfere with assessments.
IGA was evaluated on a scale from 0 (clear: residual hyperpigmentation and erythema may be present) to 4 (severe: entire face is involved, covered with comedones, numerous papules and pustules, and few nodules and cysts).
(§2) Data from the three studies were pooled and analyzed. Efficacy was evaluated in the intent-to-treat (ITT) population, which included all patients who were randomized and dispensed study medicine. Safety was assessed in the safety population, which included all patients who were randomized and treated at least once.
Efficacy was evaluated by the Cochran-Mantel-Haenzsel (CMH) test, using general association for success rate and row mean differences by relative to identified distribution (RIDIT) transformed scores for percent lesion change. All tests were 2-sided.
Synergy was defined as the efficacy of combination (adapalene-BPO) greater than the sum of efficacy of individual components (adapalene alone and BPO alone). We took into account the vehicle effect by deducting it from the effect of treatments:^25
Net effect of active agent=effect of active agent−effect of vehicle Synergy=Net effect of adapalene-BPO−(Net effect of adapalene+Net effect of BPO)>0
The degree of synergy was evaluated based on the contribution of synergy to efficacy (net effect) of adapalene-BPO:
Degree of synergy(%)=(synergy/Net effect of adapalene-BPO)×100

Data set [1] in a line: Pooled analysis of three adapalene-BPO clinical studies: safety (adverse events, local facial tolerability). The class given is in vivo, human. The conditions noted are these: 12 weeks, safety population; adapalene 0.1%, BPO 2.5%. As for the experimental part: as §1
Safety of the treatments was evaluated through reporting of adverse events (AE) and assessments of local facial tolerability. At each study visit, the investigators rated signs of erythema, scaling, dryness and stinging/burning on a scale from 0 (none) to 3 (severe).
as §2

The conditions of data set [2]: even in the presence of light; cited from earlier work.
[3] abbreviates: BPO at 2.5% (alone or with adapalene at 0.1%) in TPA 0.01%.
Where [4] appears, read: BPO at 5% (alone or with adapalene at 0.1%) in TPA 0.01%.
Setting [5] is: BPO at 10% (alone or with adapalene at 0.1%) in TPA 0.01%.
Where [6] appears, read: Adapalene at 0.1% alone in TPA 0.01%.

Regarding `O=C(OOC(=O)c1ccccc1)c1ccccc1` [BPO, benzoyl peroxide], in the data set with acne lesions, the reduction in lesions came out at 36%; the Degree of success is 15% and 15.4%; the “Progress of the lesions (as median absolute numbers): Number of inflammatory lesions” value is listed as −13.0; the “Progress of the lesions (as median absolute numbers): Number of non-inflammatory lesions” value is on record as −16.0. Further, in the data set with acne lesions, the “Progress of the lesions (as median absolute numbers): Total number of lesions” value is on record as −27, the “Progress of the lesions (median percentages): Number of inflammatory lesions” value is recorded as −43.6%, the “Progress of the lesions (median percentages): Number of non-inflammatory lesions” value is listed as −36.4% and the “Progress of the lesions (median percentages): Total number of lesions” value is −35.6%. Besides, in the data set with TPA-induced ear edema (setting [3]), the “Ear edema Mean” value was 22.40; the “Inhibition vs TPA (%)” value is 16% and 16.4%. In addition, in the data set with TPA-induced ear edema (setting [4]), the “Ear edema Mean” value was 20.40; the “Inhibition vs TPA (%)” value is 24% and 23.9%. Besides, in the data set on TPA-induced ear edema (setting [5]), the “Ear edema Mean” value came out at 16.20; the “Inhibition vs TPA (%)” value is 40% and 39.6%. In the data set on acne vulgaris lesions, the “net effect (active minus vehicle), total lesions” value is on record as 2.4% and the success rate is reported as 23.1%. Further, in data set [1], the “percentage of patients who experienced treatment-related AEs” value is 8.5%.

Consider `COc1ccc(-c2ccc3cc(C(=O)O)ccc3c2)cc1C12CC3CC(CC(C3)C1)C2` [Adapalene, 6-[3-(1-Adamantyl)-4-methoxyphenyl]-2-naphthoic acid], for which, in the data set on acne lesions, the reduction in lesions is on record as 35%, the Degree of success was determined as 15.5%, the “Progress of the lesions (as median absolute numbers): Number of inflammatory lesions” value was −13.0 and the “Progress of the lesions (as median absolute numbers): Number of non-inflammatory lesions” value is −17.0. Moreover, in the data set on acne lesions, the “Progress of the lesions (as median absolute numbers): Total number of lesions” value is on record as −29.0, the “Progress of the lesions (median percentages): Number of inflammatory lesions” value was −45.7%, the “Progress of the lesions (median percentages): Number of non-inflammatory lesions” value is recorded as −33.3% and the “Progress of the lesions (median percentages): Total number of lesions” value is −35.4%. For the same molecule, the Degree of success in the data set on acne lesions (listed as adapalene) is recorded as 16%. For the same molecule, in the data set on TPA-induced ear edema (setting [6]), the “Ear edema Mean” value is 23.40; the “Inhibition vs TPA (%)” value is 13% and 12.7%. In the data set with acne vulgaris lesions, the “net effect (active minus vehicle), total lesions” value came out at 1.4% and the success rate is reported as 20.0%. Moreover, in data set [1], the “percentage of patients who experienced treatment-related AEs” value came out at 15.3%. Besides, in data set [2], the “stability when combined with BPO” value is “remains stable”.
